In patent US12590094B2, “Compounds for the treatment of neurodegenerative and metabolic disorders” (UNIVERSITY OF FLORIDA RESEARCH FOUNDATION, INCORPORATED, priority 2019, dated 2026) one finds EC50 data, which are given here for 33 compounds.

For the assay, the system named is Cells exposed to TPrP. Briefly: cells. Conditions: read-out: Viability EC50.
What is called EC50 is the midpoint of the concentration-response curve. As for `c1ccc(OCCNc2nnc(Cc3ccncc3)c3ccccc23)cc1` [SR-27892], the EC50 was 500 nM.

Regarding `Cc1nc(C)c(-c2csc(Nc3ccc(S(=O)(=O)N4CCOCC4)cc3)n2)s1` [SR-28549], the EC50 amounted to 400 nM.

For the compound `c1ccc2c(c1)CC(Nc1nnc(Cc3ccncc3)c3ccccc13)CO2` (stereo not drawn) [SR-27889], the EC50 turned out to be 200 nM.

`CNS(=O)(=O)c1ccc(Nc2nc(-c3ccc(S(N)(=O)=O)cc3)cs2)cc1` [SR-29451]: the EC50 came to 20 nM.

For `COCc1cc(-c2ccc(OC)cc2)nc2c(C(=O)NCCCn3ccnc3)cnn12` [SR3-5250], the EC50 worked out at 0.5 nM.

As for `CN(C)S(=O)(=O)c1ccc(Nc2nc(-c3ccncc3)cs2)cc1` [SR-27744], the EC50 stood at 60 nM.

As for `O=S(=O)(Nc1ccc(F)cc1)c1ccc(Nc2nc(-c3ccncc3)cs2)cc1` [SR-29448], the EC50 was above 500 nM.

As for `O=S(=O)(Nc1ccccc1)c1ccc(Nc2nc(-c3ccncc3)cs2)cc1` [SR-29444], the EC50 was above 500 nM.

On to `c1ccc2oc(Nc3nnc(Cc4ccncc4)c4ccccc34)nc2c1` [SR-30010], for which the EC50 came to 2 nM.

Regarding `Cc1nc(C)c(-c2csc(Nc3ccc(S(=O)(=O)N4CCCCC4)cc3)n2)s1` [SR-28547], the EC50 was above 500 nM.

Take `c1ccc2c(NCC3CCCO3)nnc(Cc3ccncc3)c2c1` (stereo not drawn) [SR-30004]: the EC50 was found to be 45 nM.

For the compound `Cc1nccn1CCCNC(=O)c1cnn2c(C)cc(-c3ccc(OC(F)(F)F)cc3)nc12` [SR0-29246], the EC50 was determined as 2 nM.

On to `Cc1nccn1CCCNC(=O)c1cnn2c(C(C)(C)C)cc(-c3ccc4c(c3)OCO4)nc12` [SR0-31104], for which the EC50 stood at 10 nM.

On to `CCNS(=O)(=O)c1ccc(Nc2nc(-c3ccncc3)cs2)cc1` [SR-27784], for which the EC50 is 60 nM.

For `CC1(c2cccc(Nc3nnc(Cc4ccncc4)c4ccccc34)c2)OCCO1` [SR-30012], the EC50 is 2 nM.

For the compound `c1ccc2[nH]c(CNc3nnc(Cc4ccncc4)c4ccccc34)nc2c1` [SR-27887], the EC50 turned out to be 200 nM.

Turning to `Cc1nc(C)c(-c2nc(Nc3ccc(S(N)(=O)=O)cc3)sc2CO)s1` [SR-28551], the EC50 amounted to 300 nM.

`c1ccc2c(c1)CC(CNc1nnc(Cc3ccncc3)c3ccccc13)CO2` (stereo not drawn) [SR-27890]: the EC50 worked out at 140 nM.

Turning to `O=S(=O)(c1ccc(Nc2nc(-c3ccncc3)cs2)cc1)N1CCOCC1` [SR-28548], the EC50 turned out to be 170 nM.

On to `COc1ccc(-c2cc(C(C)(C)C)n3ncc(C(=O)NCCCn4ccnc4)c3n2)cc1` [SR0-28464], for which the EC50 came out at 1.2 nM.

Consider `CCCCNS(=O)(=O)c1ccc(Nc2nc(-c3sc(C)nc3C)cs2)cc1` [SR-27809], for which the EC50 was above 500 nM.

As for `C/C(=N\O)c1cccc(Nc2nnc(Cc3ccncc3)c3ccccc23)c1` [SR-30013], the EC50 stood at 2 nM.

Turning to `c1ccc2c(NCC3CCOCC3)nnc(Cc3ccncc3)c2c1` [SR-30008], the EC50 came out at 8 nM.

Consider `c1ccc2c(c1)OCCC2Nc1nnc(Cc2ccncc2)c2ccccc12` (stereo not drawn) [SR-27891], for which the EC50 turned out to be 200 nM.

With `CCc1c(C(=O)O)ncc2[nH]c3cc(OC)c(OC)cc3c12` [SR26266], the EC50 is above 4000 nM.

Turning to `O=S(=O)(c1ccc(Nc2nc(-c3ccncc3)cs2)cc1)N1CCCCC1` [SR-28546], the EC50 worked out at 400 nM.

In the case of `CCCCNS(=O)(=O)c1ccc(Nc2nc(-c3ccncc3)cs2)cc1` [SR-27808], the EC50 is 170 nM.

With `NS(=O)(=O)c1ccc(Nc2nc(-c3ccncc3)c(CO)s2)cc1` [SR-28550], the EC50 was found to be 60 nM.

As to `Cc1ccc(NS(=O)(=O)c2ccc(Nc3nc(-c4sc(C)nc4C)cs3)cc2)cc1` [SR-29447], the concentration giving a half-maximal response (EC50) was above 500 nM.

With `CCc1nccn1CCCNC(=O)c1cnn2c(C(F)(F)F)cc(-c3ccc(OC)cc3)nc12` [SR0-29244], the EC50 was 25 nM.

As for `O=S(=O)(c1ccc(Nc2nc(-c3ccncc3)cs2)cc1)N1CCCC1` [SR-28544], the EC50 was found to be 350 nM.

For the compound `COc1ccc(-c2cc(C(F)(F)F)n3ncc(C(=O)N(C)CCCn4ccnc4)c3n2)cc1` [SR3-5314], the EC50 was above 16 nM.

For `CO/N=C(\C)c1cccc(Nc2nnc(Cc3ccncc3)c3ccccc23)c1` [SR-30014], the EC50 amounted to 2 nM.
